These results are taken from patent US9345905B2, “Heterocyclic amides compounds which are HDAC6 inhibitors and used as anti-tumoral agents” (Nanjing Allgen Pharma Co. Ltd., priority 2011, dated 2016).

This test has as its target T1, human HDAC6 (Homo sapiens, UniProt Q9UBN7).
T1 construct: Reaction Biology Corporation
T1 sequence (Q9UBN7 1-1215): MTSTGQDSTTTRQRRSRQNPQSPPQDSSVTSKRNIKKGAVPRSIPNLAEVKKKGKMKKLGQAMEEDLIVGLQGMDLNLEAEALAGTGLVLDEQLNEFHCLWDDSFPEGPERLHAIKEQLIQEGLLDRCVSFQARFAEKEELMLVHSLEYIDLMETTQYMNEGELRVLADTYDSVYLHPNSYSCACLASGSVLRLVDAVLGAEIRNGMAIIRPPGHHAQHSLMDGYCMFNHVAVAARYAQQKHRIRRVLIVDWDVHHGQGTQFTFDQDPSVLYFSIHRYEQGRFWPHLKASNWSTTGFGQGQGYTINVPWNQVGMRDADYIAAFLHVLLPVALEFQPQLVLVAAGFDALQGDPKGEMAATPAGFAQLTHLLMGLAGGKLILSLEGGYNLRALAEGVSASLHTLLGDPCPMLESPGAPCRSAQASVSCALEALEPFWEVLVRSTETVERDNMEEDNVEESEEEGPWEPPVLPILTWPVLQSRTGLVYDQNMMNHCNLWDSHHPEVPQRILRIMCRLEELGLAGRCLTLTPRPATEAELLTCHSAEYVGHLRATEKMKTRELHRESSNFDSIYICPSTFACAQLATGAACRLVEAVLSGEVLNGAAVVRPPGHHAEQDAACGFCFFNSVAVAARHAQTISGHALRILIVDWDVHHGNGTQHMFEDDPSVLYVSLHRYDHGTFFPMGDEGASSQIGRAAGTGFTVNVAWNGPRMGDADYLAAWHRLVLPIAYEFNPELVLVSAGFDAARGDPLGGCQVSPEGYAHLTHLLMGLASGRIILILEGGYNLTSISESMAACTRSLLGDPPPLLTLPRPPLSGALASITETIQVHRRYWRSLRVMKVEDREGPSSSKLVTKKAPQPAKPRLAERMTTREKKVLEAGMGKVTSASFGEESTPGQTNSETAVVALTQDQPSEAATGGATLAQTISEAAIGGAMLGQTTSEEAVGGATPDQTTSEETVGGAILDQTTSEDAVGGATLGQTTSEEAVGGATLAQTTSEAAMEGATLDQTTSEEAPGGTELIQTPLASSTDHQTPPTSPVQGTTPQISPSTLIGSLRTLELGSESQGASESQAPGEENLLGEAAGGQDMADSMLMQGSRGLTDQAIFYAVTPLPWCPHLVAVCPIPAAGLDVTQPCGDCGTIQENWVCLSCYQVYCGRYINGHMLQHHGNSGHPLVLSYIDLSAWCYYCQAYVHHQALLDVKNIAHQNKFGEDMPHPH
Put plainly: HDAC6 inhibition, fluorogenic peptide substrate (Reaction Biology Corporation). It is filed as biochemical. The protocol:
The compounds of the present invention were tested for inhibition of human HDAC6 at Reaction Biology Corporation by using 50 μM Fluorogenic peptide from p53 residues 379-382 (RHKKAc) as the substrate.

The mark [1] stands for this setting: 50 μM fluorogenic peptide from p53 residues 379-382 (RHKKAc) as substrate, read-out: IC50, HDAC6 inhibition.

By IC50 is commonly meant the midpoint of a concentration-inhibition curve.

Like-named read-outs stand apart in the source and are kept apart here.

Regarding `CN1CCc2c(Sc3ccc(C(=O)NO)cc3)c3ccccc3n2C1` [Example 1, N-Hydroxy-4-((2-methyl-1,2,3,4-tetrahydropyrimido[1,6-a]indol-5-yl)thio)benzamide], the IC50 under setting [1] was determined as 0.00248 µM.

Regarding `Cc1ccc2c(c1)c(Sc1ccc(C(=O)NO)cc1)c1n2CN(C)CC1` [Example 2, 4-((2,7-Dimethyl-1,2,3,4-tetrahydropyrimido[1,6-a]indol-5-yl)thio)-N-hydroxybenzamide], the IC50 under setting [1] was 0.0355 µM.

`CN1CCc2c(Cc3ccc(C(=O)NO)cc3)c3ccccc3n2C1` [Example 3, N-hydroxy-4-((2-methyl-1,2,3,4-tetrahydropyrimido[1,6-a]indol-5-yl)methyl)benzamide]: the IC50 under setting [1] amounted to 0.0107 µM.

As to `CN1CCc2c(C(=O)c3ccc(C(=O)NO)cc3)c3ccccc3n2C1` [Example 4, N-hydroxy-4-(2-methyl-1,2,3,4-tetrahydropyrimido[1,6-a]indole-5-carbonyl)benzamide], the IC50 turned out to be 1.49 µM.

Regarding `CN1CCn2c(c(Sc3ccc(C(=O)NO)cc3)c3ccccc32)C1=O` [Example 5, N-hydroxy-4-((2-methyl-1-oxo-1,2,3,4-tetrahydropyrazino[1,2-a]indol-10-yl)thio)benzamide], the IC50 under setting [1] amounted to 0.00176 µM.
